Laboratory results published in US6355634B1, “Aromatic compounds” (Bayer Aktiengesellschaft, priority 1990, dated 2002).
One block for each compound: values may come before it.

Legend:
[1] = tested on: Plasmopara viticola; assay: Plasmopara viticola (protective action) on grapevine seedlings; assay type: in vivo; settings: 144 h, 160 ppm spray, grapevine cv. Riesling x Sylvaner, day 6 after infection, read-out: action (leaf area infected with Plasmopara viticola as a percentage compared with the infected, untreated control)
Description: Plasmopara viticola (Protective Action)
2 grapevine seedlings cv. Riesling×Sylvaner, each in the 4-5 leaf stage, are sprayed thoroughly from all sides with a spray mixture prepared with a wettable powder of the active substance (with 160 ppm of active ingredient) and subsequently cultured further in a controlled-environment cabinet at 17° C., 70-80% relative atmospheric humidity and with a photoperiod of 16 hours. After 6 days, the test plants are infected by spraying the undersides of the leaves with zoosporangia of Plasmopara viticola, suspended in distilled water (approx. 300,000 sporangia/ml). The grapevine plants are then incubated as follows: 1 day at 22° C. and under dew-point conditions in the dark and subsequently 4 days in the greenhouse. To induce fructification of Plasmopara viticola, the grapevines are transferred to a controlled-environment cabinet with dew-point conditions at 22° C. on day 5 after the infection.
The tests are carried out in each case on day 6 after the infection by determining the leaf area infected with Plasmopara viticola as a percentage compared with the infected, untreated control.

[2] = tested on: Venturia inaequalis; assay: Venturia inaequalis (curative action) on apple seedlings; assay type: in vivo; settings: 50 ppm spray, apple cv. Golden Delicious, evaluated 9-10 days after treatment, read-out: action (leaf area covered in Venturia inaequalis as a percentage compared with the infected control)
Description: Venturia inaequalis (Curative Action)
Two apple seedlings cv. “Golden Delicious” are sprayed with a conidia suspension of Venturia inaequalis and subsequently incubated at 18° C. and under dew-point conditions. After 24 hours, the plants are sprayed thoroughly from all sides with a spray mixture prepared with a wettable powder of the active substance (with 50 ppm of active ingredient). The treated apple seedlings are subsequently cultured further in the greenhouse. 9-10 days after the treatment, the test is evaluated by determining the leaf area covered in Venturia inaequalis as a percentage compared with the infected control.

[3] = tested on: Alternaria brassicae; assay: Alternaria brassicae (protective action) on cabbage seedlings; assay type: in vivo; settings: 50 ppm spray, cabbage cv. Vorbote, evaluated 2-5 days after infection, read-out: action (leaf area infected with Alternaria brassicae as a percentage compared with the infected, untreated control)
Description: Alternaria brassicae (Protective Action)
4 cabbage seedlings, cv. “Vorbote”, in the 6-leaf stage, distributed to 2 pots, are sprayed thoroughly with a spray mixture prepared with a wettable powder of the active substance (with 50 ppm of active ingredient) and subsequently cultured further in a controlled-environment cabinet at 19° C. and with 16 hours illumination per day. Two days after the treatment, the plants are infected by spraying with an aqueous conidia suspension (approx. 30,000 conidia/ml). The cabbage plants are then incubated at 24-26° C., under dew-point conditions and with a photoperiod of 16 hours. The test is evaluated 2-5 days after the infection by determining the leaf area infected with Alternaria brassicae as a percentage compared with the infected, untreated control.

[4] = tested on: Cercospora arachidicola; assay: Action against Cercospora arachidicola on peanut plants (curative action); assay type: in vivo; settings: Mycosphaerella arachidis, 288 h, 160 ppm spray, peanut cv. Tamnut, evaluated 12 days after treatment, read-out: action (leaf area infected with Cercospora arachidicola as a percentage compared with the infected control)
Description: Action Against Cercospora arachidicola on Peanut Plants (Curative Action)
Two peanut plants cv. “Tamnut” in the 4-leaf stage are sprayed with a conidia suspension of Cercospora arachidicola (approx. 200,000 conidia/ml) and subsequently incubated at 25-26° C. and under dew-point conditions. After two days, the plants are sprayed thoroughly from all sides with a spray mixture prepared with a wettable powder of the active substance (with 160 ppm of active ingredient). The treated plants are subsequently incubated in a controlled-environment cabinet under the following conditions: 25-27° C. and 80% atmospheric humidity during the day, 20° C. and dew-point conditions during the night; the photoperiod in each case is 16 hours. 12 days after the treatment, the test is evaluated by determining the leaf area infected with Cercospora arachidicola as a percentage compared with the infected control.

[5] = tested on: Puccinia coronata; assay: Puccinia coronata (curative action) on oat seedlings; assay type: in vivo; settings: 160 ppm spray, oat cv. Selma, evaluated 9-10 days after infection, read-out: action (leaf area infected with Puccinia coronata as a percentage compared with the infected, untreated control)
Description: Puccinia coronata (Curative Action)
30-40 oat seedlings cv. “Selma” (distributed to 2 pots of ø7 cm) are infected with Puccinia coronata by spraying with an aqueous spore suspension (approx. 150,000 uredospores/ml). The test plants are subsequently incubated for 24 hours at 20-24° C. and under dew-point conditions. The oat seedlings are then sprayed thoroughly from all sides with a spray mixture prepared with a wettable powder of the active substance (with 160 ppm of active ingredient). They are cultured further in a controlled-environment cabinet at 19° C. and with a photoperiod of 14 hours. The test is evaluated 9-10 days after infection by determining the leaf area infected with Puccinia coronata as a percentage compared with the infected, untreated control.

[6] = tested on: Erysiphe graminis; assay: Erysiphe graminis (protective action) on wheat seedlings; assay type: in vivo; settings: Blumeria graminis, 168 h, 160 ppm spray, wheat cv. Lita, evaluated 7 days after infection, read-out: action (leaf area covered in Erysiphe graminis as a percentage compared with the infected control)
Description: Erysiphe graminis (Protective Action)
30-40 wheat seedlings cv. “Lita” in the 1-leaf stage (distributed to two pots of ø7 cm) are sprayed thoroughly with a spray mixture prepared with a wettable powder of the active substance (with 160 ppm of active ingredient) and then cultured further in the greenhouse. One day after the treatment, the plants are dusted with conidia of Erysiphe graminis. The test is evaluated 7 days after the infection by determining the size of the leaf area covered in Erysiphe graminis as a percentage compared with the infected control.
Untreated, but infected control plants show a level of infection with Erysiphe of 100%.

Compound: CO/N=C(\C(=O)OC)c1ccccc1CON=C(c1ccccc1)C1CC1 [Compound 36]
- pest or weed control at 160 ppm [1]: > 75%
- pest or weed control at 50 ppm [2]: > 75%
- pest or weed control at 50 ppm [3]: > 75%
- pest or weed control at 160 ppm [4]: > 75%

Compound: CO/N=C(\C(=O)OC)c1ccccc1CON=C(C)c1cccc(C(F)(F)F)c1 [Compound 12]
- pest or weed control at 160 ppm [5]: > 75%
- pest or weed control at 160 ppm [1]: > 75%
- pest or weed control at 50 ppm [2]: > 75%
- pest or weed control at 50 ppm [3]: > 75%
- pest or weed control at 160 ppm [4]: > 75%

Compound: CO/N=C(\C(=O)OC)c1ccccc1CON=C(C)c1ccc(F)cc1 [Compound 34]
- melting point: 89 to 90 °C
- pest or weed control at 160 ppm [6]: > 75%
- pest or weed control at 50 ppm [2]: > 75%
- pest or weed control at 50 ppm [3]: > 75%
- pest or weed control at 160 ppm [4]: > 75%

Compound: CO/N=C(\C(=O)OC)c1ccccc1CON=C(C)c1ccc(OC(F)F)cc1 [Compound 78]
- pest or weed control at 160 ppm [5]: > 75%
- pest or weed control at 50 ppm [2]: > 75%

Compound: CO/N=C(\C(=O)OC)c1ccccc1CON=C(C)Cc1cccc(C(F)(F)F)c1 [Compound 24]
- pest or weed control at 160 ppm [6]: > 75%
- pest or weed control at 160 ppm [1]: > 75%
- pest or weed control at 50 ppm [2]: > 75%
- pest or weed control at 50 ppm [3]: > 75%
- pest or weed control at 160 ppm [4]: > 75%

Compound: CO/N=C(\C(=O)OC)c1ccccc1CON=C(C)c1cccc(Br)c1 [Compound 22]
- pest or weed control at 160 ppm [1]: > 75%
- pest or weed control at 50 ppm [2]: > 75%
- pest or weed control at 50 ppm [3]: > 75%
- pest or weed control at 160 ppm [4]: > 75%

Compound: CO/N=C(\C(=O)OC)c1ccccc1CON=C(c1cccc(Br)c1)C(F)(F)F [Compound 30]
- pest or weed control at 160 ppm [1]: > 75%
- pest or weed control at 50 ppm [2]: > 75%
- pest or weed control at 50 ppm [3]: > 75%
- pest or weed control at 160 ppm [4]: > 75%

Compound: CO/N=C(\C(=O)OC)c1ccccc1CON=C(c1ccc(C)cc1)C(F)(F)F [Compound 31]
- pest or weed control at 160 ppm [6]: > 75%
- pest or weed control at 160 ppm [1]: > 75%
- pest or weed control at 50 ppm [2]: > 75%
- pest or weed control at 50 ppm [3]: > 75%

Compound: CO/N=C(\C(=O)OC)c1ccccc1CON=C(C)C(=O)c1ccc(F)cc1 [Compound 128]
- pest or weed control at 160 ppm [6]: > 75%
- pest or weed control at 160 ppm [5]: > 75%

Compound: CO/N=C(\C(=O)OC)c1ccccc1CON=C(C)c1cc(C(F)(F)F)cc(C(F)(F)F)c1 [Compound 33]
- melting point: 76 to 78 °C
- pest or weed control at 160 ppm [6]: > 75%
- pest or weed control at 50 ppm [2]: > 75%
- pest or weed control at 50 ppm [3]: > 75%
- pest or weed control at 160 ppm [4]: > 75%

Compound: CO/N=C(\C(=O)OC)c1ccccc1CON=C(c1ccccc1)C(C)C [Compound 29]
- pest or weed control at 160 ppm [6]: > 75%
- pest or weed control at 160 ppm [1]: > 75%
- pest or weed control at 50 ppm [2]: > 75%
- pest or weed control at 50 ppm [3]: > 75%

Compound: CO/N=C(\C(=O)OC)c1ccccc1CON=C(c1cccc(C(F)(F)F)c1)C1CC1 [Compound 148]
- pest or weed control at 160 ppm [5]: > 75%
- pest or weed control at 160 ppm [4]: > 75%

Compound: CO/N=C(\C(=O)OC)c1ccccc1CON=C(C)C(=O)c1cccc(C(F)(F)F)c1 [Compound 131]
- pest or weed control at 160 ppm [5]: > 75%
- pest or weed control at 50 ppm [2]: > 75%

Compound: CO/N=C(\C(=O)OC)c1ccccc1CON=C(C)c1ccc(Cl)cc1 [Compound 17]
- pest or weed control at 160 ppm [5]: > 75%
- pest or weed control at 160 ppm [1]: > 75%
- pest or weed control at 50 ppm [2]: > 75%
- pest or weed control at 50 ppm [3]: > 75%
- pest or weed control at 160 ppm [4]: > 75%

Compound: CO/N=C(\C(=O)OC)c1ccccc1CON=C(C)c1cccc(Cl)c1 [Compound 135]
- pest or weed control at 160 ppm [6]: > 75%
- pest or weed control at 160 ppm [1]: > 75%
- pest or weed control at 50 ppm [2]: > 75%

Compound: CO/N=C(\C(=O)OC)c1ccccc1CON=C(C)c1ccccn1 [Compound 15]
- melting point: 82 to 84 °C
- pest or weed control at 160 ppm [6]: > 75%
- pest or weed control at 50 ppm [2]: > 75%

- melting point: 95 to 97 °C
Compound: CO/N=C(\C(=O)OC)c1ccccc1CON=C(C)c1ccco1

Compound: CCC(=NOCc1ccccc1/C(=N/OC)C(=O)OC)c1ccc2ccccc2c1 [Compound 120]
- pest or weed control at 160 ppm [6]: > 75%
- pest or weed control at 160 ppm [1]: > 75%

Compound: CO/N=C(\C(=O)OC)c1ccccc1CON=C(C)c1ccc(F)c(C(F)(F)F)c1 [Compound 90]
- pest or weed control at 160 ppm [5]: > 75%
- pest or weed control at 160 ppm [4]: > 75%

Compound: CO/N=C(\C(=O)OC)c1ccccc1CON=C(C)c1cc2ccccc2o1 [Compound 32]
- melting point: 110 to 112 °C
- pest or weed control at 160 ppm [1]: > 75%
- pest or weed control at 50 ppm [2]: > 75%
- pest or weed control at 50 ppm [3]: > 75%
- pest or weed control at 160 ppm [4]: > 75%

Compound: CO/N=C(\C(=O)OC)c1ccccc1CON=C(C)Cc1ccc(Cl)c(C(F)(F)F)c1 [Compound 133]
- pest or weed control at 160 ppm [5]: > 75%
- pest or weed control at 160 ppm [4]: > 75%

Compound: CO/N=C(\C(=O)OC)c1ccccc1CON=C(C)c1cccc(OC(F)(F)F)c1 [Compound 138]
- pest or weed control at 160 ppm [5]: > 75%
- pest or weed control at 160 ppm [1]: > 75%
- pest or weed control at 50 ppm [3]: > 75%
- pest or weed control at 160 ppm [4]: > 75%
